Experimental data: paper PMC5291822 (Bioorganic & medicinal chemistry, 2016)

Columns and labels:
[1] = tested on: magnesium-dependent phosphatidate phosphohydrolase-1; conditions: off-target; cited from earlier work
[2] = biological target: T1, human GV sPLA2 (Homo sapiens, UniProt P39877); test: mixed micelle modified Dole assay, GV sPLA2; assay type: biochemical
T1 sequence (P39877 21-138): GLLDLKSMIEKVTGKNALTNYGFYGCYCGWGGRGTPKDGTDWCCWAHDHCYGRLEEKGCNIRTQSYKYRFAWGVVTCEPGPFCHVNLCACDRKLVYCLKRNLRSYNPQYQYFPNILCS

[3] = biological target: T2, human GIVA cPLA2 (Homo sapiens, UniProt P47712); test: mixed micelle modified Dole assay, GIVA cPLA2; assay type: biochemical
T2 sequence (P47712 1-749): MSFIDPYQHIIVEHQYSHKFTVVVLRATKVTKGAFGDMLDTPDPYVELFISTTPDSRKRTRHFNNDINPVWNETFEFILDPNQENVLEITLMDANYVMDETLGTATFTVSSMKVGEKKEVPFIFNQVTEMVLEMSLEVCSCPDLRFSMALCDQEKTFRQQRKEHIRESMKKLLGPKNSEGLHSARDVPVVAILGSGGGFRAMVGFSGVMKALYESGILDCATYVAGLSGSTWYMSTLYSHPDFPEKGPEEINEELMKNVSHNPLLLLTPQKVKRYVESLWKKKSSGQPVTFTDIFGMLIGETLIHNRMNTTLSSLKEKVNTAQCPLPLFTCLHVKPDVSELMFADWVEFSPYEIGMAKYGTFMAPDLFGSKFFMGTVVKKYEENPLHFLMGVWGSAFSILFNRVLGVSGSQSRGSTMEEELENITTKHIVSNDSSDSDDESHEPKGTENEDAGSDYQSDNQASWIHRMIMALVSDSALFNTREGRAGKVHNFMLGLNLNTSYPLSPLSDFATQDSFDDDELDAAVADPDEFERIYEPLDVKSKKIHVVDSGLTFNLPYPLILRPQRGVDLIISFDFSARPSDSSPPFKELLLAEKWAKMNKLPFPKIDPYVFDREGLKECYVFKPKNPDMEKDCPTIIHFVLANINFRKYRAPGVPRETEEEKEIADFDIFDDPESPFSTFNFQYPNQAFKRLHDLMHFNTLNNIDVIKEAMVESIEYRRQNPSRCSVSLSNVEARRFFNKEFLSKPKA

[4] = tested on: experimental autoimmune encephalomyelitis; conditions: cited from earlier work
[5] = biological target: T2, human GIVA cPLA2; conditions: 0.091 mol fraction; reference inhibitor; cited from earlier work

O=C1O/C(=C/Br)CCC1c1cccc2ccccc12 (centres unmarked) [BEL, Bromoenol lactone]
inhibition of magnesium-dependent phosphatidate phosphohydrolase-1 (in words) [1]: able to inhibit

CCCC[C@H](NC(=O)C(=O)CCCCc1ccc(OC)cc1)C(=O)NCC(=O)OC(C)(C)C [compound 12c, (S)-tert-Butyl 2-(2-(6-(4-methoxyphenyl)-2-oxohexanamido)hexanamido)acetate]
inhibition of GV sPLA2 (in words) [2]: weak inhibition
inhibition of GIVA cPLA2 (in words) [3]: weak inhibition

O=C(CCCCc1ccccc1)C(F)(F)C(F)(F)F [FKGK11]
clinical severity and progression of experimental autoimmune encephalomyelitis [4]: strong reduction in the clinical severity and progression
% Inhbition GIVA cPLA2 [5]: N.D.[17] (N.D. signifies compounds with less than 25% inhibition (or no detectable inhibition).)
